Activity calls are given as the source filed them. The rule behind the calls is not given here.
Legend:
RAW264.7 [1] = experiment: Cytotoxicity against mouse RAW264.7 cells assessed as reduction in cell viability at 40 uM incubated for 4 hrs by MTT assay; type: functional
RAW264.7 [2] = experiment: Antiinflammatory activity in mouse RAW264.7 cells assessed as inhibition of LPS-induced NO production at 20 uM preincubated with compound for 2 hrs followed by LPS stimulation and measured after 24 hrs by Griess reagent based analysis; type: functional, cell-based; settings: time 26.0 hrs
[3] = biological target: T1, Stimulator of interferon genes protein (Mus musculus) (UniProt Q3TBT3); experiment: Activation of STING signaling pathway in mouse RAW264.7 cells assessed as inhibition of LPS-induced TBK1 phosphorylation at 2.5 to 10 uM pretreated with compound for 2 hrs followed by LPS-induction and measured after 6 hrs by Western blot analysis; type: cell-based; settings: filed as activator, dose 2.5-10 µM, time 8.0 hrs
T1 sequence (whole entry): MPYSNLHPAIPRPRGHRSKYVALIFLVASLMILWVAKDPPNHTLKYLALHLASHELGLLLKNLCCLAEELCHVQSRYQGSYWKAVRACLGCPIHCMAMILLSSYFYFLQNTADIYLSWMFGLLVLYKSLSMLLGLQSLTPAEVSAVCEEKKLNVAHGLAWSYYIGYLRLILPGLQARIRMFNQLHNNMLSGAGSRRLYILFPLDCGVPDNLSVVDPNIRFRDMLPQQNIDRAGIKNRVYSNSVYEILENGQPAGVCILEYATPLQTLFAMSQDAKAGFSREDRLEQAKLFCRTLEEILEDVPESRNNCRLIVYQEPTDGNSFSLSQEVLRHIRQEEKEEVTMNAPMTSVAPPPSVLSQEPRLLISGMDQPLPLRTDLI

[4] = biological target: T1, Stimulator of interferon genes protein (Mus musculus); experiment: Activation of STING signaling pathway in mouse RAW264.7 cells assessed as inhibition of LPS-induced IkappaB-alpha phosphorylation at 2.5 to 10 uM pretreated with compound for 2 hrs followed by LPS-induction and measured after 6 hrs by Western blot analysis; type: cell-based; settings: filed as activator, dose 2.5-10 µM, time 8.0 hrs
Mus musculus [5] = experiment: In-vivo inhibition of STING/IRF3/NF-kappaB activation in liver septic mouse model assessed as reduction in IRF3 phosphorylation at 1 to 9 mg/kg, ip pretreated with compound for 3 days followed by LPS-induction and measured after 2 hrs by Western blotting analysis; type: functional, organism-based; settings: dose 1-9 mg/kg, time 74.0 hrs
Mus musculus [6] = experiment: Antiinflammatory activity against LPS-induced liver injury BALB/c mouse model assessed as reduction in hemorrhage severity at 1 to 9 mg/kg, ip pretreated with compound for 3 days followed by LPS-induction and measured after 12 hrs by H and E staining based analysis; type: functional, organism-based; settings: dose 1-9 mg/kg, time 3.5 day
[7] = biological target: T1, Stimulator of interferon genes protein (Mus musculus); experiment: Activation of STING signaling pathway in mouse RAW264.7 cells assessed as inhibition of LPS-induced IRF3 phosphorylation at 2.5 to 10 uM pretreated with compound for 2 hrs followed by LPS-induction and measured after 6 hrs by Western blot analysis; type: cell-based; settings: filed as activator, dose 2.5-10 µM, time 8.0 hrs
Mus musculus [8] = experiment: In-vivo inhibition of STING/IRF3/NF-kappaB activation in liver septic mouse model assessed as reduction in IkappaB-alpha phosphorylation at 1 to 9 mg/kg, ip pretreated with compound for 3 days followed by LPS-induction and measured after 2 hrs by Western blotting analysis; type: functional, organism-based; settings: dose 1-9 mg/kg, time 74.0 hrs
Mus musculus [9] = experiment: Antiinflammatory activity against LPS-induced liver injury BALB/c mouse model assessed as reduction in IL-6 level in liver at 1 to 9 mg/kg, ip pretreated with compound for 3 days followed by LPS-induction and measured after 12 hrs; type: functional, organism-based; settings: dose 1-9 mg/kg, time 3.5 day
RAW264.7 [10] = experiment: Antiinflammatory activity in mouse RAW264.7 cells assessed as reduction in LPS-induced IL-6 level at 20 uM preincubated with compound for 2 hrs followed by LPS stimulation and measured after 6 hrs by ELISA analysis; type: functional, cell-based; settings: time 8.0 hrs
Mus musculus [11] = experiment: Antiinflammatory activity against LPS-induced liver injury BALB/c mouse model assessed as reduction in AST level in serum at 1 to 9 mg/kg, ip pretreated with compound for 3 days followed by LPS-induction and measured after 12 hrs; type: functional, organism-based; settings: dose 1-9 mg/kg, time 3.5 day
RAW264.7 [12] = experiment: Antiinflammatory activity in mouse RAW264.7 cells assessed as reduction in LPS-induced TNF-alpha level at 20 uM preincubated with compound for 2 hrs followed by LPS stimulation and measured after 6 hrs by ELISA analysis; type: functional, cell-based; settings: time 8.0 hrs
[13] = biological target: T1, Stimulator of interferon genes protein (Mus musculus); experiment: Binding affinity to STING in mouse RAW264.7 cells assessed as thermal stabilization at 49 to 55 degree C at 5 to 50 uM measured for 12 hrs by cellular thermal shift assay; type: cell-based; settings: filed as modulator, dose 5-50 µM
[14] = biological target: T1, Stimulator of interferon genes protein (Mus musculus); experiment: Activation of STING signaling pathway in mouse RAW264.7 cells assessed as inhibition of LPS-induced p65 phosphorylation at 2.5 to 10 uM pretreated with compound for 2 hrs followed by LPS-induction and measured after 6 hrs by Western blot analysis; type: cell-based; settings: filed as activator, dose 2.5-10 µM, time 8.0 hrs
Mus musculus [15] = experiment: In-vivo inhibition of STING/IRF3/NF-kappaB activation in liver septic mouse model assessed as reduction in p65 phosphorylation at 1 to 9 mg/kg, ip pretreated with compound for 3 days followed by LPS-induction and measured after 2 hrs by Western blotting analysis; type: functional, organism-based; settings: dose 1-9 mg/kg, time 74.0 hrs
Mus musculus [16] = experiment: Antiinflammatory activity against LPS-induced liver injury BALB/c mouse model assessed as reduction in IFN-beta level in liver at 1 to 9 mg/kg, ip pretreated with compound for 3 days followed by LPS-induction and measured after 12 hrs; type: functional, organism-based; settings: dose 1-9 mg/kg, time 3.5 day
Mus musculus [17] = experiment: Antiinflammatory activity against LPS-induced liver injury BALB/c mouse model assessed as reduction in ALP level in serum at 1 to 9 mg/kg, ip pretreated with compound for 3 days followed by LPS-induction and measured after 12 hrs; type: functional, organism-based; settings: dose 1-9 mg/kg, time 3.5 day
Mus musculus [18] = experiment: In-vivo inhibition of STING/IRF3/NF-kappaB activation in liver septic mouse model assessed as reduction in TBK phosphorylation at 1 to 9 mg/kg, ip pretreated with compound for 3 days followed by LPS-induction and measured after 2 hrs by Western blotting analysis; type: functional, organism-based; settings: dose 1-9 mg/kg, time 74.0 hrs
Mus musculus [19] = experiment: Antiinflammatory activity against LPS-induced liver injury BALB/c mouse model assessed as reduction in TNF-alpha level in liver at 1 to 9 mg/kg, ip pretreated with compound for 3 days followed by LPS-induction and measured after 12 hrs; type: functional, organism-based; settings: dose 1-9 mg/kg, time 3.5 day
RAW264.7 [20] = experiment: Antiinflammatory activity in mouse RAW264.7 cells assessed as reduction in LPS-induced IFN-beta level at 20 uM preincubated with compound for 2 hrs followed by LPS stimulation and measured after 6 hrs by ELISA analysis; type: functional, cell-based; settings: time 8.0 hrs
Mus musculus [21] = experiment: Antiinflammatory activity against LPS-induced liver injury BALB/c mouse model assessed as reduction in ALT level in serum at 1 to 9 mg/kg, ip pretreated with compound for 3 days followed by LPS-induction and measured after 12 hrs; type: functional, organism-based; settings: dose 1-9 mg/kg, time 3.5 day
Mus musculus [22] = experiment: In-vivo inhibition of STING/IRF3/NF-kappaB activation in liver septic mouse model assessed as reduction in STING level at 1 to 9 mg/kg, ip pretreated with compound for 3 days followed by LPS-induction and measured after 2 hrs by Western blotting analysis; type: functional, organism-based; settings: dose 1-9 mg/kg, time 74.0 hrs
RAW264.7 [23] = experiment: Antiinflammatory activity in mouse RAW264.7 cells assessed as inhibition of LPS-induced iNOS expression at 20 uM preincubated with compound for 2 hrs followed by LPS stimulation and measured after 6 hrs by ELISA analysis; type: functional, cell-based; settings: time 8.0 hrs

CC1(C)CC[C@]2(C(=O)OCc3ccccc3)CC[C@]3(C)C(=CC[C@@H]4[C@@]5(C)Cc6nccnc6[C@@](C)(COC(=O)CCC(=O)N6CCOCC6)[C@@H]5CC[C@]43C)[C@@H]2C1
Activity (RAW264.7 [1]): <90%

CC1(C)CC[C@]2(C(=O)OCc3ccccc3)CC[C@]3(C)C(=CC[C@@H]4[C@@]5(C)Cc6nccnc6[C@@](C)(COC(=O)CCC(=O)n6nnc7ccccc76)[C@@H]5CC[C@]43C)[C@@H]2C1
Activity (RAW264.7 [1]): <90%

CCOC(=O)c1noc2c1C[C@@]1(C)[C@@H](CC[C@]3(C)[C@@H]1CC=C1[C@@H]4CC(C)(C)CC[C@]4(C(=O)OCc4ccccc4)CC[C@]13C)[C@]2(C)CO
Activity (RAW264.7 [1]): >90%

CN1CCN(C(=O)CCC(=O)OC[C@]2(C)c3nccnc3C[C@@]3(C)[C@H]2CC[C@]2(C)[C@@H]3CC=C3[C@@H]4CC(C)(C)CC[C@]4(C(=O)OCc4ccccc4)CC[C@]32C)CC1
Activity (RAW264.7 [1]): <90%

CC1(C)CC[C@]2(C(=O)N3CCOCC3)CC[C@]3(C)C(=CC[C@@H]4[C@@]5(C)Cc6nccnc6[C@@](C)(CO)[C@@H]5CC[C@]43C)[C@@H]2C1
Activity (RAW264.7 [1]): >90%
Activity (RAW264.7 [2]): Active

CC1(C)CC[C@]2(C(=O)OCc3ccccc3)CC[C@]3(C)C(=CC[C@@H]4[C@@]5(C)Cc6nccnc6[C@@](C)(COC(=O)CCC(=O)N6CCCC6)[C@@H]5CC[C@]43C)[C@@H]2C1
Activity (RAW264.7 [1]): <90%

CC1(C)CC[C@]2(C(=O)OCc3ccccc3)CC[C@]3(C)C(=CC[C@@H]4[C@@]5(C)Cc6nccnc6[C@@](C)(COC(=O)CCC(=O)N6CCCCC6)[C@@H]5CC[C@]43C)[C@@H]2C1
Activity (RAW264.7 [1]): >90%
Activity (RAW264.7 [2]): Active

CC(C)CC(NC(=O)[C@]12CCC(C)(C)C[C@H]1C1=CC[C@@H]3[C@@]4(C)Cc5nccnc5[C@@](C)(CO)[C@@H]4CC[C@@]3(C)[C@]1(C)CC2)C(=O)O (some centres not stated)
Activity (RAW264.7 [1]): >90%

CC1(C)CC[C@]2(C(=O)N3CCCC3C(=O)O)CC[C@]3(C)C(=CC[C@@H]4[C@@]5(C)Cc6nccnc6[C@@](C)(CO)[C@@H]5CC[C@]43C)[C@@H]2C1 (some centres not stated)
Activity (RAW264.7 [1]): >90%
Activity (RAW264.7 [2]): Active

CC1(C)CC[C@]2(C(=O)OCc3ccccc3)CC[C@]3(C)C(=CC[C@@H]4[C@@]5(C)Cc6nccnc6[C@@](C)(COC(=O)CCC(=O)Nc6ncn[nH]6)[C@@H]5CC[C@]43C)[C@@H]2C1
Activity (RAW264.7 [1]): <90%

CC1(C)CC[C@]2(C(=O)NC(Cc3ccccc3)C(=O)O)CC[C@]3(C)C(=CC[C@@H]4[C@@]5(C)Cc6nccnc6[C@@](C)(CO)[C@@H]5CC[C@]43C)[C@@H]2C1 (some centres not stated)
Activity (RAW264.7 [1]): >90%
Activity (RAW264.7 [2]): Active

Cc1nc2c(s1)C[C@@]1(C)[C@@H](CC[C@]3(C)[C@@H]1CC=C1[C@@H]4CC(C)(C)CC[C@]4(C(=O)O)CC[C@]13C)[C@]2(C)CO
Activity (RAW264.7 [1]): >90%

CC1(C)CC[C@]2(C(=O)OCc3ccccc3)CC[C@]3(C)C(=CC[C@@H]4[C@@]5(C)Cc6nccnc6[C@@](C)(COC(=O)CCC(=O)n6cccn6)[C@@H]5CC[C@]43C)[C@@H]2C1
Activity (RAW264.7 [1]): <90%

CC1(C)CC[C@]2(C(=O)O)CC[C@]3(C)C(=CC[C@@H]4[C@@]5(C)Cc6nccnc6[C@@](C)(CO)[C@@H]5CC[C@]43C)[C@@H]2C1
Activity (RAW264.7 [1]): >90%
Activity [3]: Active
Activity [4]: Active
inhibition (Mus musculus [5]): Active
Activity (Mus musculus [6]): Active
Activity [7]: Active
inhibition (Mus musculus [8]): Active
Activity (Mus musculus [9]): Active
Activity (RAW264.7 [10]): Active
Activity (Mus musculus [11]): Active
Activity (RAW264.7 [12]): Active
Activity [13]: Active
Activity (RAW264.7 [2]): Active
Activity [14]: Active
inhibition (Mus musculus [15]): Active
Activity (Mus musculus [16]): Active
Activity (Mus musculus [17]): Active
inhibition (Mus musculus [18]): Active
Activity (Mus musculus [19]): Active
Activity (RAW264.7 [20]): Active
Activity (Mus musculus [21]): Active
inhibition (Mus musculus [22]): Active
Activity (RAW264.7 [23]): Active

CCOC(=O)c1noc2c1C[C@@]1(C)[C@@H](CC[C@]3(C)[C@@H]1CC=C1[C@@H]4CC(C)(C)CC[C@]4(C(=O)OCc4ccccc4)CC[C@]13C)[C@]2(C)COC(=O)CCC(=O)O
Activity (RAW264.7 [1]): >90%

O=C(Nc1ccc(I)cc1)c1ccc([N+](=O)[O-])o1
Activity [3]: Active
Activity [4]: Active
inhibition (Mus musculus [5]): Active
Activity (Mus musculus [6]): Active
Activity [7]: Active
inhibition (Mus musculus [8]): Active
Activity (Mus musculus [9]): Active
Activity (Mus musculus [11]): Active
Activity [14]: Active
inhibition (Mus musculus [15]): Active
Activity (Mus musculus [16]): Active
Activity (Mus musculus [17]): Active
inhibition (Mus musculus [18]): Active
Activity (Mus musculus [19]): Active
Activity (Mus musculus [21]): Active
inhibition (Mus musculus [22]): Active
